Laboratory results: patent publication US12723063B2, “GIPR-agonist compounds” (Eli Lilly and Company, priority 2019, dated 2026)
*1 amine or outer side, *2 acyl side, *3 side chain or, on linkers, in order; H or OH if unused. Where a SMILES comes first, the peptide text is derived from it. Side-chain parts run from the residue outwards. [ ]: non-standard residue; d: D form. The star is where a group is joined. C20 diacid = O=C(O)CCCCCCCCCCCCCCCCCCC(=O)*; C18 diacid = O=C(O)CCCCCCCCCCCCCCCCC(=O)*; αMePhe(2-F) = C[C@](N)(Cc1ccccc1F)C(=O)O; γGlu = O=C(O)[C@H](CCC(=O)[*:2])N[*:1]; 4Pal = N[C@@H](Cc1ccncc1)C(=O)O; αMeL = CC(C)C[C@](C)(N)C(=O)O; Iva = CC[C@](C)(N)C(=O)O; AEEA = NCCOCCOCC(=O)O; Aib = CC(C)(N)C(=O)O

Experiments:
human GIPR = target: T1, human GIPR (Homo sapiens, UniProt P48546); test: [125I]-GIP binding, SPA with WGA beads, 0.1% bacitracin; details: geometric mean, read-out: hGIPR Ki
T1 construct: expressed in transfected cells; crude membranes
T1 sequence (P48546 22-466): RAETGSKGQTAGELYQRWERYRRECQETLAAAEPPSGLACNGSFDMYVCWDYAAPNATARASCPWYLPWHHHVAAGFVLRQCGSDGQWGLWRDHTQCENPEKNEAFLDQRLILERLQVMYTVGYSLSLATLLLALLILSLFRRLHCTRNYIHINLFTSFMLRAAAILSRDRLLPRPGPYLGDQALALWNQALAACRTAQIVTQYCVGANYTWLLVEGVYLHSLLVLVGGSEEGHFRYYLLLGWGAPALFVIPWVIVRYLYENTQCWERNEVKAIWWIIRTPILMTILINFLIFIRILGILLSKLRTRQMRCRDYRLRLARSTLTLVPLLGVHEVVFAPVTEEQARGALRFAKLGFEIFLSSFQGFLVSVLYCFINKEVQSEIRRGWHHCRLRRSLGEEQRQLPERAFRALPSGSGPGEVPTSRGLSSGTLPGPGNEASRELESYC
Procedure, shortened: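 Ki values are geometric means (SEM, n independent days), derived from four-parameter nonlinear regression of IC50. Membranes came from hGIPR-expressing CHO cells.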

human GLP-1R = target: T2, human GLP-1R (Homo sapiens, UniProt P43220); test: [125I]-GLP-1 binding, SPA with WGA beads, 0.1% bacitracin; details: geometric mean, read-out: hGLP1R Ki
T2 construct: expressed in transfected cells; crude membranes
Procedure, shortened: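 Binding buffer was 25 mM HEPES pH 7.4 with 2.5 mM CaCl2, 1 mM MgCl2, 0.1% (w/v) bacitracin, 0.003% Tween-20 and EDTA-free protease inhibitors. Four-parameter regression gave IC50, converted to Ki (geometric mean, SEM, n independent days).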

T2 sequence (P43220 24-463): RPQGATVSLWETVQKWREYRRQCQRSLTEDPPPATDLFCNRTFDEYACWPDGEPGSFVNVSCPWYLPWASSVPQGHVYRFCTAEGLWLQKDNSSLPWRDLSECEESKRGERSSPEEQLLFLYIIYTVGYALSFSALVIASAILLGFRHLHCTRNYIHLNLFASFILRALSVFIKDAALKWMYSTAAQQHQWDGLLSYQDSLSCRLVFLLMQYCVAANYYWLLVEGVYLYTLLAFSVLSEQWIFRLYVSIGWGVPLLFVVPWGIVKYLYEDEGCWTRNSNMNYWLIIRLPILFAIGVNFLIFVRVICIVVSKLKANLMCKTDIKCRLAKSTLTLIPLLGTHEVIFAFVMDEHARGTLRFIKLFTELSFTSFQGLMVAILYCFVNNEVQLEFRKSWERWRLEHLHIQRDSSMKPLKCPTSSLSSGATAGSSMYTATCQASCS

Row | Compound | Ki (human GIPR) [pM] | Ki (human GLP-1R) [pM]
1 | CC[C@H](C)[C@H](NC(=O)[C@H](CO)NC(=O)[C@H](Cc1ccc(O)cc1)NC(=O)[C@H](CC(=O)O)NC(=O)[C@H](CO)NC(=O)[C@@H](NC(=O)[C@H](Cc1ccccc1)NC(=O)[C@@H](NC(=O)CNC(=O)[C@H](CCC(=O)O)NC(=O)[C@@H](C)NC(=O)[C@@H](N)Cc1ccc(O)cc1)[C@@H](C)O)[C@@H](C)CC)C(=O)N[C@@H](CC(C)C)C(=O)N[C@@H](CC(C)C)C(=O)N[C@@H](CC(=O)O)C(=O)N[C@@H](CCCCN)C(=O)N[C@@H](CCCCNC(=O)COCCOCCNC(=O)COCCOCCNC(=O)CC[C@H](NC(=O)CCCCCCCCCCCCCCCCC(=O)O)C(=O)O)C(=O)N[C@@H](C)C(=O)N[C@@H](CCC(N)=O)C(=O)NC(C)(C)C(=O)N[C@@H](CCC(=O)O)C(=O)N[C@@H](Cc1ccccc1)C(=O)N[C@H](C(=O)N[C@@H](CCC(=O)O)C(=O)N[C@@H](Cc1c[nH]c2ccccc12)C(=O)N[C@@H](CC(C)C)C(=O)N[C@@H](CC(C)C)C(=O)N[C@@H](C)C(=O)NCC(=O)NCC(=O)N1CCC[C@H]1C(=O)N[C@@H](CO)C(=O)N[C@@H](CO)C(=O)NCC(=O)N[C@@H](C)C(=O)N1CCC[C@H]1C(=O)N1CCC[C@H]1C(=O)N1CCC[C@H]1C(=O)N[C@@H](CO)C(N)=O)C(C)C [Example 29] (H-Y[dA]EGTFISDYSILLDKK([AEEA-AEEA-γGlu-C18 diacid])AQ[Aib]EFVEWLLAGGPSSGAPPPS-NH2) | 56.9 | 22700
2 | CC[C@H](C)[C@H](NC(=O)[C@H](CO)NC(=O)[C@H](Cc1ccc(O)cc1)NC(=O)[C@H](CC(=O)O)NC(=O)[C@H](CO)NC(=O)[C@@H](NC(=O)[C@](C)(Cc1ccccc1F)NC(=O)[C@@H](NC(=O)CNC(=O)[C@H](CCC(=O)O)NC(=O)[C@H](C)NC(=O)[C@@H](Cc1ccc(O)cc1)NC(C)=O)[C@@H](C)O)[C@@H](C)CC)C(=O)N[C@@H](C)C(=O)N[C@@H](CC(C)C)C(=O)N[C@@H](CC(=O)O)C(=O)N[C@@H](CCCCN)C(=O)N[C@@H](CCCCNC(=O)COCCOCCNC(=O)COCCOCCNC(=O)CC[C@H](NC(=O)CCCCCCCCCCCCCCCCC(=O)O)C(=O)O)C(=O)N[C@@H](Cc1c[nH]cn1)C(=O)N[C@@H](CCC(N)=O)C(=O)NC(C)(C)C(=O)N[C@@H](CCC(=O)O)C(=O)N[C@@H](Cc1ccccc1)C(=O)N[C@H](C(=O)N[C@@H](CC(N)=O)C(=O)N[C@@H](Cc1ccc(O)cc1)C(=O)N[C@@H](CC(C)C)C(=O)N[C@@H](CC(C)C)C(=O)N[C@@H](C)C(=O)NCC(=O)NCC(=O)N1CCC[C@H]1C(=O)N[C@@H](CO)C(=O)N[C@@H](CO)C(=O)NCC(=O)N[C@@H](C)C(=O)N1CCC[C@H]1C(=O)N1CCC[C@H]1C(=O)N1CCC[C@H]1C(=O)N[C@@H](CO)C(N)=O)C(C)C [Example 30] (Ac-[dY]AEGT[αMePhe(2-F)]ISDYSIALDKK([AEEA-AEEA-γGlu-C18 diacid])HQ[Aib]EFVNYLLAGGPSSGAPPPS-NH2) | 37 | 26500
3 | CC[C@H](C)[C@H](NC(=O)[C@H](CO)NC(=O)[C@H](Cc1ccc(O)cc1)NC(=O)[C@H](CC(=O)O)NC(=O)[C@H](CO)NC(=O)[C@@H](NC(=O)[C@H](Cc1ccccc1)NC(=O)[C@@H](NC(=O)CNC(=O)[C@H](CCC(=O)O)NC(=O)C(C)(C)NC(=O)[C@@H](N)Cc1ccc(O)cc1)[C@@H](C)O)[C@@H](C)CC)C(=O)N[C@@H](CC(C)C)C(=O)N[C@@H](CC(C)C)C(=O)N[C@@H](CC(=O)O)C(=O)N[C@@H](CCCCN)C(=O)N[C@@H](CCCCNC(=O)COCCOCCNC(=O)COCCOCCNC(=O)CC[C@H](NC(=O)CCCCCCCCCCCCCCCCC(=O)O)C(=O)O)C(=O)N[C@@H](Cc1c[nH]cn1)C(=O)N[C@@H](CCC(N)=O)C(=O)NC(C)(C)C(=O)N[C@@H](CC(=O)O)C(=O)N[C@@H](Cc1ccccc1)C(=O)N[C@H](C(=O)N[C@@H](CC(N)=O)C(=O)N[C@@H](Cc1ccc(O)cc1)C(=O)N[C@@H](CC(C)C)C(=O)N[C@@H](CC(C)C)C(=O)N[C@@H](C)C(=O)N[C@@H](C)C(=O)NCC(=O)N1CCC[C@H]1C(=O)N[C@@H](CO)C(=O)N[C@@H](CO)C(=O)NCC(=O)N[C@@H](C)C(=O)N1CCC[C@H]1C(=O)N1CCC[C@H]1C(=O)N1CCC[C@H]1C(=O)N[C@@H](CO)C(N)=O)C(C)C [Example 31] (H-Y[Aib]EGTFISDYSILLDKK([AEEA-AEEA-γGlu-C18 diacid])HQ[Aib]DFVNYLLAAGPSSGAPPPS-NH2) | 47.3 | 266000
4 | CC[C@H](C)[C@H](NC(=O)[C@H](CC(C)C)NC(=O)[C@@H](NC(=O)CNC(=O)[C@H](CCC(=O)O)NC(=O)C(C)(C)NC(=O)[C@@H](N)Cc1ccc(O)cc1)[C@@H](C)O)C(=O)N[C@@H](CO)C(=O)N[C@@H](CC(=O)O)C(=O)N[C@@H](Cc1ccc(O)cc1)C(=O)N[C@@H](CO)C(=O)N[C@H](C(=O)N[C@@](C)(CC(C)C)C(=O)N[C@@H](CC(C)C)C(=O)N[C@@H](CC(=O)O)C(=O)N[C@@H](CCCCN)C(=O)N[C@@H](CCCCNC(=O)COCCOCCNC(=O)COCCOCCNC(=O)CC[C@H](NC(=O)CCCCCCCCCCCCCCCCCCC(=O)O)C(=O)O)C(=O)N[C@@H](Cc1c[nH]cn1)C(=O)N[C@@H](CCC(N)=O)C(=O)NC(C)(C)C(=O)N[C@@H](CCC(=O)O)C(=O)N[C@@H](Cc1ccccc1)C(=O)N[C@H](C(=O)N[C@@H](CCC(=O)O)C(=O)N[C@@H](Cc1ccc(O)cc1)C(=O)N[C@@H](CC(C)C)C(=O)N[C@@H](CC(C)C)C(=O)N[C@@H](CCC(=O)O)C(=O)NCC(=O)NCC(=O)N1CCC[C@H]1C(=O)N[C@@H](CO)C(=O)N[C@@H](CO)C(=O)NCC(=O)N[C@@H](C)C(=O)N1CCC[C@H]1C(=O)N1CCC[C@H]1C(=O)N1CCC[C@H]1C(=O)N[C@@H](CO)C(N)=O)C(C)C)[C@@H](C)CC [Example 73] (H-Y[Aib]EGTLISDYSI[αMeL]LDKK([AEEA-AEEA-γGlu-C20 diacid])HQ[Aib]EFVEYLLEGGPSSGAPPPS-NH2) | 36 | 117000
5 | CC[C@H](C)[C@H](NC(=O)[C@H](CO)NC(=O)[C@H](Cc1ccc(O)cc1)NC(=O)[C@H](CC(=O)O)NC(=O)[C@H](CO)NC(=O)[C@@H](NC(=O)[C@](C)(CC)NC(=O)[C@@H](NC(=O)CNC(=O)[C@H](CCC(=O)O)NC(=O)C(C)(C)NC(=O)[C@@H](N)Cc1ccc(O)cc1)[C@@H](C)O)[C@@H](C)CC)C(=O)N[C@@](C)(CC(C)C)C(=O)N[C@@H](CC(C)C)C(=O)N[C@@H](CC(=O)O)C(=O)N[C@@H](CCCCN)C(=O)N[C@@H](CCCCNC(=O)COCCOCCNC(=O)COCCOCCNC(=O)CC[C@H](NC(=O)CCCCCCCCCCCCCCCCCCC(=O)O)C(=O)O)C(=O)N[C@@H](Cc1c[nH]cn1)C(=O)N[C@@H](CCC(N)=O)C(=O)NC(C)(C)C(=O)N[C@@H](CC(=O)O)C(=O)N[C@@H](Cc1ccccc1)C(=O)N[C@H](C(=O)N[C@@H](CCC(=O)O)C(=O)N[C@@H](Cc1ccncc1)C(=O)N[C@@H](CC(C)C)C(=O)N[C@@H](CC(C)C)C(=O)N[C@@H](CCC(=O)O)C(=O)NCC(=O)NCC(=O)N1CCC[C@H]1C(=O)N[C@@H](CO)C(=O)N[C@@H](CO)C(=O)NCC(=O)N[C@@H](C)C(=O)N1CCC[C@H]1C(=O)N1CCC[C@H]1C(=O)N1CCC[C@H]1C(=O)N[C@@H](CO)C(N)=O)C(C)C [Example 74] (H-Y[Aib]EGT[Iva]ISDYSI[αMeL]LDKK([AEEA-AEEA-γGlu-C20 diacid])HQ[Aib]DFVE[4Pal]LLEGGPSSGAPPPS-NH2) | 28.7 | 395000
6 | CC[C@H](C)[C@H](NC(=O)[C@H](CO)NC(=O)[C@H](Cc1ccc(O)cc1)NC(=O)[C@H](CC(=O)O)NC(=O)[C@H](CO)NC(=O)[C@@H](NC(=O)[C@](C)(CC)NC(=O)[C@@H](NC(=O)CNC(=O)[C@H](CCC(=O)O)NC(=O)C(C)(C)NC(=O)[C@@H](N)Cc1ccc(O)cc1)[C@@H](C)O)[C@@H](C)CC)C(=O)N[C@@](C)(CC(C)C)C(=O)N[C@@H](CC(C)C)C(=O)N[C@@H](CC(=O)O)C(=O)N[C@@H](CCCCN)C(=O)N[C@@H](CCCCNC(=O)COCCOCCNC(=O)COCCOCCNC(=O)CC[C@H](NC(=O)CCCCCCCCCCCCCCCCCCC(=O)O)C(=O)O)C(=O)N[C@@H](Cc1c[nH]cn1)C(=O)N[C@@H](CCC(N)=O)C(=O)NC(C)(C)C(=O)N[C@@H](CC(=O)O)C(=O)N[C@@H](Cc1ccccc1)C(=O)N[C@H](C(=O)N[C@@H](CCC(=O)O)C(=O)N[C@@H](Cc1ccncc1)C(=O)N[C@@H](CC(C)C)C(=O)N[C@@H](CC(C)C)C(=O)N[C@@H](CCC(=O)O)C(=O)N[C@H](C(=O)NCC(=O)N1CCC[C@H]1C(=O)N[C@@H](CO)C(=O)N[C@@H](CO)C(=O)NCC(=O)N[C@@H](C)C(=O)N1CCC[C@H]1C(=O)N1CCC[C@H]1C(=O)N1CCC[C@H]1C(=O)N[C@@H](CO)C(N)=O)[C@@H](C)O)C(C)C [Example 75] (H-Y[Aib]EGT[Iva]ISDYSI[αMeL]LDKK([AEEA-AEEA-γGlu-C20 diacid])HQ[Aib]DFVE[4Pal]LLETGPSSGAPPPS-NH2) | 62.6 | > 902000
